Test results: US10450318B2, “CXCR4 receptor antagonists” (BRISTOL-MYERS SQUIBB COMPANY, priority 2015, dated 2019)

Target: T1, CXCR4 receptors (Homo sapiens, UniProt P61073)
T1 construct: expressing endogenous CXCR4 receptors; endogenous in cells; host or cells: CCRF-CEM (human T lymphoblast cells)
Experiment: CXCR4-CEM calcium flux assay, antagonist mode (inhibition of SDF-1α-induced calcium flux)
Assay type: cell-based
Settings: inhibition of calcium flux induced by 4 nM SDF-1α in CCRF-CEM cells
Description: Exemplary compounds of the invention were tested for their ability to induce or inhibit calcium flux in CCRF-CEM cells. […] CXCR4-CEM Calcium Flux Assays. […] The cells were then equilibrated to room temperature for 30 minutes before assay. […] The serially diluted compounds were diluted to working concentrations with the same assay buffer to 0.5% DMSO. […] Activity of the compounds to induce calcium flux was monitored by FDSS in the “agonist mode” for 90 sec. For “antagonist mode” assessment, the cells are subsequently incubated for 25 min at room temperature. SDF-1α (R&D System Cat#350-NS/CF) was then added at a final concentration of 4 nM to stimulate the cells. Inhibition of SDF-1α-induced calcium flux was monitored by FDSS6000 for 90 sec. […] After correcting for background, EC50 values were determined. […] Inhibition data for the test compound over a range of concentrations was plotted as percentage inhibition of the test compound as compared to an internal control compound.

T1 sequence (P61073 whole entry): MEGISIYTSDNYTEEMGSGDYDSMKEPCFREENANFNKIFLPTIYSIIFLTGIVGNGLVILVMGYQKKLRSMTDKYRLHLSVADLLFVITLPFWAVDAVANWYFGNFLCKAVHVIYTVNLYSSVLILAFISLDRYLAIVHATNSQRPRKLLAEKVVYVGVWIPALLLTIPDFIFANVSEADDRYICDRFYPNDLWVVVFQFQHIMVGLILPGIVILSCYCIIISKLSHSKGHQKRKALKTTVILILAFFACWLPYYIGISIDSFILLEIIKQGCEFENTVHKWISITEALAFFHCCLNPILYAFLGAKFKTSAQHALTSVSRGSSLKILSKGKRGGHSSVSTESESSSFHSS

| IC50 [nM] | Compound |
| --- | --- |
| 17 | Cc1ccc(CN2CCN(c3nccc4nc(CN(C)[C@H]5CCCc6cccnc65)cn34)CC2)cc1 [Example 53, (S)-N-methyl-N-[(5-{4-[(4-methylphenyl)methyl]piperazin-1-yl}imidazo[1,2-c]pyrimidin-2-yl)methyl]-5,6,7,8-tetrahydroquinolin-8-amine] |
| 5.6 | CN(Cc1cn2c(N3CCN(Cc4ccco4)CC3)nccc2n1)[C@H]1CCCc2cccnc21 [Example 54, (S)-N-({5-[4-(furan-2-ylmethyl)piperazin-1-yl]imidazo[1,2-c]pyrimidin-2-yl}methyl)-N-methyl-5,6,7,8-tetrahydroquinolin-8-amine] |
| 9 | CN(Cc1cn2c(N3CCN(Cc4ccccn4)CC3)nccc2n1)[C@H]1CCCc2cccnc21 [Example 55, (S)-N-methyl-N-({5-[4-(pyridin-2-ylmethyl)piperazin-1-yl]imidazo[1,2-c]pyrimidin-2-yl}methyl)-5,6,7,8-tetrahydroquinolin-8-amine] |
| 4.6 | CN(Cc1cn2c(N3CCN(Cc4cccn4C)CC3)nccc2n1)[C@H]1CCCc2cccnc21 [Example 56, (S)-N-methyl-N-[(5-{4-[(1-methyl-1H-pyrrol-2-yl)methyl]piperazin-1-yl}imidazo[1,2-c]pyrimidin-2-yl)methyl]-5,6,7,8-tetrahydroquinolin-8-amine] |
| 28 | CN(Cc1cn2c(N3CCN(Cc4cccc(Oc5ccccc5)c4)CC3)nccc2n1)[C@H]1CCCc2cccnc21 [Example 57, (8S)-N-methyl-N-[(5-{4-[(3-phenoxyphenyl)methyl]piperazin-1-yl}imidazo[1,2-c]pyrimidin-2-yl)methyl]-5,6,7,8-tetrahydroquinolin-8-amine] |
| 60 | CN(Cc1cn2c(N3CCN(CC4CCCO4)CC3)nccc2n1)[C@H]1CCCc2cccnc21 (stereo partly drawn) [Example 58, (S)-N-methyl-N-({5-[4-(oxolan-2-ylmethyl)piperazin-1-yl]imidazo[1,2-c]pyrimidin-2-yl}methyl)-5,6,7,8-tetrahydroquinolin-8-amine] |
| 25 | CN(Cc1cn2c(N3CCN(Cc4ccccc4O)CC3)nccc2n1)[C@H]1CCCc2cccnc21 [Example 59, 2-({4-[2-({methyl[(S)-5,6,7,8-tetrahydroquinolin-8-yl]amino}methyl)imidazo[1,2-c]pyrimidin-5-yl]piperazin-1-yl}methyl)phenol] |
| 7.6 | CN(C)c1ccc(CN2CCN(c3nccc4nc(CN(C)[C@H]5CCCc6cccnc65)cn34)CC2)cc1 [Example 60, (8S)-N-{[5-(4-{[4-(dimethylamino)phenyl]methyl}piperazin-1-yl)imidazo[1,2-c]pyrimidin-2-yl]methyl}-N-methyl-5,6,7,8-tetrahydroquinolin-8-amine] |
| 33 | CN(Cc1cn2c(N3CCN(CCc4ccc(O)cc4)CC3)nccc2n1)[C@H]1CCCc2cccnc21 [Example 61, 4-(2-{4-[2-({methyl[(S)-5,6,7,8-tetrahydroquinolin-8-yl]amino}methyl)imidazo[1,2-c]pyrimidin-5-yl]piperazin-1-yl}ethyl)phenol] |
| 19600 | CN(Cc1cn2c(N3CCN(S(=O)(=O)c4cccs4)CC3)nccc2n1)[C@H]1CCCc2cccnc21 [Example 62, (S)-N-methyl-N-({5-[4-(thiophene-2-sulfonyl)piperazin-1-yl]imidazo[1,2-c]pyrimidin-2-yl}methyl)-5,6,7,8-tetrahydroquinolin-8-amine] |
| 16700 | CN(Cc1cn2c(N3CCN(S(=O)(=O)c4ccccc4)CC3)nccc2n1)[C@H]1CCCc2cccnc21 [Example 63, (S)-N-({5-[4-(benzenesulfonyl)piperazin-1-yl]imidazo[1,2-c]pyrimidin-2-yl}methyl)-N-methyl-5,6,7,8-tetrahydroquinolin-8-amine] |
| 11 | CN(Cc1cn2c(N3CCN(Cc4ccc(C(F)(F)F)cc4)CC3)nccc2n1)[C@H]1CCCc2cccnc21 [Example 64, (S)-N-methyl-N-{[5-(4-{[4-(trifluoromethyl)phenyl]methyl}piperazin-1-yl)imidazo[1,2-c]pyrimidin-2-yl]methyl}-5,6,7,8-tetrahydroquinolin-8-amine] |
| 16 | CC(CCN1CCN(c2nccc3nc(CN(C)[C@H]4CCCc5cccnc54)cn23)CC1)c1ccccc1 (stereo partly drawn) [Example 65, (S)-N-methyl-N-({5-[4-(3-phenylbutyl)piperazin-1-yl]imidazo[1,2-c]pyrimidin-2-yl}methyl)-5,6,7,8-tetrahydroquinolin-8-amine] |
| 9.4 | CN(Cc1cn2c(N3CCN(Cc4cccc(C#N)c4)CC3)nccc2n1)[C@H]1CCCc2cccnc21 [Example 66, 3-({4-[2-({methyl[(S)-5,6,7,8-tetrahydroquinolin-8-yl]amino}methyl)imidazo[1,2-c]pyrimidin-5-yl]piperazin-1-yl}methyl)benzonitrile] |
| 42 | CN(Cc1cn2c(N3CCN(Cc4nccs4)CC3)nccc2n1)[C@H]1CCCc2cccnc21 [Example 67, (S)-N-methyl-N-({5-[4-(1,3-thiazol-2-ylmethyl)piperazin-1-yl]imidazo[1,2-c]pyrimidin-2-yl}methyl)-5,6,7,8-tetrahydroquinolin-8-amine] |
| 50 | CN(Cc1cn2c(N3CCN(C(=O)Nc4cccc(Cl)c4)CC3)nccc2n1)[C@H]1CCCc2cccnc21 [Example 68, N-(3-chlorophenyl)-4-[2-({methyl[(S)-5,6,7,8-tetrahydroquinolin-8-yl]amino}methyl)imidazo[1,2-c]pyrimidin-5-yl]piperazine-1-carboxamide] |
| 3.8 | CN(Cc1cn2c(N3CCN(Cc4cccc(O)c4)CC3)nccc2n1)[C@H]1CCCc2cccnc21 [Example 69, 3-({4-[2-({methyl[(S)-5,6,7,8-tetrahydroquinolin-8-yl]amino}methyl)imidazo[1,2-c]pyrimidin-5-yl]piperazin-1-yl}methyl)phenol] |
| 4.2 | CN(Cc1cn2c(N3CCNCC3)nccc2n1)[C@H]1CCOc2cccnc21 [Example 70, (S)—N-Methyl-N-((5-(piperazin-1-yl)imidazo[1,2-c]pyrimidin-2-yl)methyl)-3,4-dihydro-2H-pyrano[3,2-b]pyridin-4-amine] |
| 2.7 | CN(Cc1nc2ccnc(N3CCNCC3)n2c1CO)[C@H]1CCOc2cccnc21 [Example 71, (S)-(2-(((3,4-Dihydro-2H-pyrano[3,2-b]pyridin-4-yl)(methyl)amino)methyl)-5-(piperazin-1-yl)imidazo[1,2-c]pyrimidin-3-yl)methanol] |
| 330 | CN(Cc1cn2c(N3CCNCC3)nc(Cl)cc2n1)[C@H]1CCCc2cccnc21 [Example 72, (S)—N-((7-Chloro-5-(piperazin-1-yl)imidazo[1,2-c]pyrimidin-2-yl)methyl)-N-methyl-5,6,7,8-tetrahydroquinolin-8-amine] |
| 120 | C[C@@H]1CN(c2nccc3nc(CN(C)[C@H]4CCCc5cccnc54)cn23)C[C@H](C)N1 [Example 73, (S)—N-((5-((3S,5R)-3,5-Dimethylpiperazin-1-yl)imidazo[1,2-c]pyrimidin-2-yl)methyl)-N-methyl-5,6,7,8-tetrahydroquinolin-8-amine] |
| 79 | CN(Cc1cn2c(N3CCC(N)C3)nccc2n1)[C@H]1CCCc2cccnc21 (stereo partly drawn) [Example 74, (8S)-N-((5-(3-aminopyrrolidin-1-yl)imidazo[1,2-c]pyrimidin-2-yl)methyl)-N-methyl-5,6,7,8-tetrahydroquinolin-8-amine] |
| 6.4 | CN(Cc1cn2c(N3CCN4CCC[C@H]4C3)nccc2n1)[C@H]1CCCc2cccnc21 [Example 76, (S)-N-((5-((S)-hexahydropyrrolo[1,2-a]pyrazin-2(1H)-yl)imidazo[1,2-c]pyrimidin-2-yl)methyl)-N-methyl-5,6,7,8-tetrahydroquinolin-8-amine] |
| 250 | CN(Cc1cn2c(N3CCNC[C@H]3CO)nccc2n1)[C@H]1CCCc2cccnc21 [Example 77, ((S)-1-(2-((methyl((S)-5,6,7,8-tetrahydroquinolin-8-yl)amino)methyl)imidazo[1,2-c]pyrimidin-5-yl)piperazin-2-yl)methanol] |
| 23 | CN(Cc1cn2c(N3CC4CNCC4C3)nccc2n1)[C@H]1CCCc2cccnc21 (stereo partly drawn) [Example 80, (8S)-N-((5-(hexahydropyrrolo[3,4-c]pyrrol-2(1H)-yl)imidazo[1,2-c]pyrimidin-2-yl)methyl)-N-methyl-5,6,7,8-tetrahydroquinolin-8-amine] |
| 32 | CN1CC2CN(c3nccc4nc(CN(C)[C@H]5CCCc6cccnc65)cn34)CC2C1 (stereo partly drawn) [Example 81, (8S)-N-methyl-N-((5-(5-methylhexahydropyrrolo[3,4-c]pyrrol-2(1H)-yl)imidazo[1,2-c]pyrimidin-2-yl)methyl)-5,6,7,8-tetrahydroquinolin-8-amine] |
| 3780 | CN(Cc1cn2c(N3CCn4cnnc4C3)nccc2n1)[C@H]1CCCc2cccnc21 [Example 82, (S)-N-((5-(5,6-dihydro-[1,2,4]triazolo[4,3-a]pyrazin-7(8H)-yl)imidazo[1,2-c]pyrimidin-2-yl)methyl)-N-methyl-5,6,7,8-tetrahydroquinolin-8-amine] |
| 150 | CN(Cc1cn2c(N3CCn4ccnc4C3)nccc2n1)[C@H]1CCCc2cccnc21 [Example 83, (S)-N-((5-(5,6-dihydroimidazo[1,2-a]pyrazin-7(8H)-yl)imidazo[1,2-c]pyrimidin-2-yl)methyl)-N-methyl-5,6,7,8-tetrahydroquinolin-8-amine] |
| > 16000 | CN(Cc1cn2c(N3CCN(CC(F)(F)F)CC3)nccc2n1)[C@H]1CCCc2cccnc21 [Example 84, (S)-N-methyl-N-((5-(4-(2,2,2-trifluoroethyl)piperazin-1-yl)imidazo[1,2-c]pyrimidin-2-yl)methyl)-5,6,7,8-tetrahydroquinolin-8-amine] |
